This is an account of results in patent publication US20240335547A1, “MODIFIED CHOLIC ACID CONJUGATES” (priority 2022, published 2024).

Converted amounts (≈) assume the structure as drawn.

Series [1] concerns HFF (human foreskin fibroblast) cells. Nature of the series: Cytotoxicity in human primary cell cultures (Trypan Blue Staining). Format: cell-based. Particulars: HFF cells, 48 hours, Trypan Blue Staining. How it is done:
(1) HFF (human foreskin fibroblast) cells (2×105) were seeded with 2 ml of DMEM medium supplemented with 10% FBS in each well of two 12-well tissue culture plates. (2) Cells were cultured for 3 days. CSA-44 was added to test for cell toxicity. Eleven concentrations were tested: 40 μg/ml, 30 μg/ml, […], 17.5 μg/ml, 15 μg/ml, 12.5 μg/ml, 10 μg/ml, 7.5 μg/ml, 5 μg/ml, 2.5 μg/ml, and 1 μg/ml. Samples with concentration of 0 μg/ml were used as the control. Each concentration was tested in duplicates with two wells. (3) Cells were cultured for 48 hours with CSA-44. Trypan Blue Staining was used to determine the numbers of living and dead cells on a hemocytometer. Percentages of living and dead cells in each sample were calculated.
(1) HFF cells (2×105) were seeded with 2 ml of DMEM medium supplemented with 10% FBS in each well of two 12-well tissue culture plates. (2) Cells were cultured for 3 days. CMA Conjugate was added to test for cell toxicity. Eleven concentrations were tested. They were 100 μg/ml, 80 μg/ml, 60 μg/ml, 50 μg/ml, 40 μg/ml, 30 μg/ml, 25 μg/ml, 20 μg/ml, 15 μg/ml, 10 μg/ml, and 5 μg/ml. Samples with concentration of 0 μg/ml were used as the control. Each concentration was tested in duplicates with two wells. (3) Cells were cultured for 48 hours with CMA Conjugate. […] Percentages of living and dead cells in each sample were calculated.

The subject of a further series is human coronavirus 229E. The series can be described thus: Therapeutic activity against human coronavirus 229E in HFF cells. Particulars: added 24 hours post infection, cell viability. It counts as cell-based. As for the experimental part:
(1) HFF cells (5×104) were seeded with 1 ml of DMEM media supplemented with 10% FBS in each well of four 24-well tissue culture plates. (2) Cell were cultured for 3 days until HFF cells in each well attained 90% confluency (media was changed 1 day before infection). 10 μl of the 10-time diluted original solution of coronavirus, about 1×10^5 PFU were added into each well. Infection was allowed to proceed overnight. (3) The media was changed 24 hours post infection. CSA-44 was added to test their anti-viral effects. Ten different concentrations of the drug were tested. They were 15 μg/ml, 10 μg/ml, 9 μg/ml, 8 μg/ml, 7 μg/ml, 6 μg/ml, 5 μg/ml, 4 μg/ml, 3 μg/ml, and 2 μg/ml with 0 μg/ml as the control. Each concentration has 12 wells for test. Cells were cultured for two weeks, and cell viability was quantified. CSA-44 was effective in inhibiting viral replication and growth. The values of EC50 (where EC is the concentration of the active that gives 50% of the maximal response) of CSA-44 is identified as 4 μg/ml.
(1) HFF cells (5×104) were seeded with 1 ml of DMEM media supplemented with 10% FBS in each well of four 24-well tissue culture plates. (2) Cells were cultured for 3 days until HFF cells in each well attained 90% confluency (media was changed 1 day before infection). Ten μl of the 10-time diluted original solution of coronavirus, about 1×10^5 PFU, were added into each well. Infection was allowed to proceed overnight. (3) The media was changed 24 hours post infection. Different concentrations of CSA-44 were added to test their anti-viral effects. Each concentration has 12 wells for test. Cells were cultured in the presence of CSA-44 for […] and cell viability was quantified.
(1) HFF cells (5×104) were seeded with 1 ml of DMEM media supplemented with 10% FBS in each well of four 24-well tissue culture plates. (2) Cells were cultured for 3 days until HFF cells in each well attained 90% confluency (media was changed 1 day before infection). […] Cells were cultured for two weeks, and cell viability was quantified. […]

What is called EC50 is the concentration giving half of the maximal effect. Low values mean an effect from little substance, high ones a need for much substance. Turning to `CCCCCCCCOC(=O)CC[C@@H](C)[C@H]1CC[C@H]2[C@@H]3[C@H](OC(=O)CCN)C[C@@H]4C[C@H](OC(=O)CCN)CC[C@]4(C)[C@H]3C[C@H](OC(=O)CCN)[C@]12C` [CSA-44], the CC50 result in series [1] is reported as “around 15 μg/ml”. Also, the EC50 with human coronavirus 229E (cells cultured for three weeks) was about 4 µg/mL (≈ 5.45 µM); in the series with human coronavirus 229E (cells cultured for two weeks) it was 4 µg/mL (≈ 5.45 µM).
